Assay results from paper PMC11882969 (Nature Communications, 2025).
Where “and” joins values, the source holds several entries; their conditions need not be identical. Equal values may be shown once. Read-outs that look alike come from different tables or passages of the source.

Tests used:
hCB1 = hCB1 (Homo sapiens, UniProt P21554); experiment: bioSensAll ebBRET signaling profiling, hCB1; format: cell-based; set-up: host or cells: HEK293SL cells, transient PEI transfection; conditions: for Gi1 hCB1 response: Gi1 biosensor; for Gi1 hCB1 / GoB hCB1: single replicate values, FigS6a; for EC50: read-out: EC50 [95% CI]; for Emax: normalized to CP-55,940
Chain of hCB1 (P21554 whole entry): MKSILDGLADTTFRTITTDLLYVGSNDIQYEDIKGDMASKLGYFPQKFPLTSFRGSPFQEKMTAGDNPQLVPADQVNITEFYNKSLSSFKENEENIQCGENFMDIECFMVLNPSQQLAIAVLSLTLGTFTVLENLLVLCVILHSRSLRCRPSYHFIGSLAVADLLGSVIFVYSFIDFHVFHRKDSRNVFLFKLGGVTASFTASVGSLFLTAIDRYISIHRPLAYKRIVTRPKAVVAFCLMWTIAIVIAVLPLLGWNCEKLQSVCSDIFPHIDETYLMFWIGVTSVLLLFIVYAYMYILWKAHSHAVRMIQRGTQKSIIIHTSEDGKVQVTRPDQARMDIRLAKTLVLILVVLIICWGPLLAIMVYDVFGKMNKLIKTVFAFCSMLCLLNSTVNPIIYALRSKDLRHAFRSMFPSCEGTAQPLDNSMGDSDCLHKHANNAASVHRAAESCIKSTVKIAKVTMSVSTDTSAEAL

CB1 (rCB1) = CB1 (rCB1) (Rattus norvegicus, UniProt P20272); experiment: Radioligand competition binding, [3H]-CP-55,940, rat brain membranes
Chain of CB1 (rCB1) (P20272 whole entry): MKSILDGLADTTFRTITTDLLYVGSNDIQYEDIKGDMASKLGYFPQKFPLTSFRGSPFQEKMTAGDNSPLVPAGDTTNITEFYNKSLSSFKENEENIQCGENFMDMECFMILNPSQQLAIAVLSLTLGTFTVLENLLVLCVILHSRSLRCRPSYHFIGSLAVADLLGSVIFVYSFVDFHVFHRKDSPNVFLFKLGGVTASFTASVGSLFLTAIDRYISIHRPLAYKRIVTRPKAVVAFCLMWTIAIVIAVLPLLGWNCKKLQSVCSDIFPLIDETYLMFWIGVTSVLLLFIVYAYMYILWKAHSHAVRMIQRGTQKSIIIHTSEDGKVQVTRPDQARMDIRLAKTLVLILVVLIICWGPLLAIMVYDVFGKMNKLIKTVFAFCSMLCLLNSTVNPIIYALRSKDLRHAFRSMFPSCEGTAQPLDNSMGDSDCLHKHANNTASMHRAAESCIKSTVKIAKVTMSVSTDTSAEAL

## Cc1cc(C(=O)NC(c2ccccc2)c2ccco2)nn1-c1cccc(C(F)(F)F)c1 (stereo not drawn) [‘1081]
hCB1; Log [Compound] (M) -4.22186
  Gi1 hCB1 response: 74.944
  Gi1 hCB1: 52.0891
  GoB hCB1: 46.0629
hCB1; Log [Compound] (M) -4.63927
  Gi1 hCB1 response: 67.9833
  Gi1 hCB1: 50.1467
  GoB hCB1: 47.4116
hCB1; Log [Compound] (M) -5.05788
  Gi1 hCB1 response: 54.8454
  Gi1 hCB1: 48.6204
  GoB hCB1: 38.1682
hCB1; Log [Compound] (M) -5.47381
  Gi1 hCB1 response: 47.9296
  Gi1 hCB1: 43.0088
  GoB hCB1: 38.8336
hCB1; Log [Compound] (M) -5.89285
  Gi1 hCB1 response: 64.2009
  Gi1 hCB1: 42.6234
  GoB hCB1: 33.6364
hCB1; Log [Compound] (M) -6.31878
  Gi1 hCB1 response: 42.1551
  Gi1 hCB1: 36.4105
  GoB hCB1: 34.6075
hCB1; Log [Compound] (M) -6.72585
  Gi1 hCB1 response: 23.6233
  Gi1 hCB1: 32.0322
  GoB hCB1: 26.2812
hCB1; Log [Compound] (M) -7.14267
  Gi1 hCB1 response: 32.464
  Gi1 hCB1: 17.1706
  GoB hCB1: 21.1739
hCB1; Log [Compound] (M) -7.55284
  Gi1 hCB1 response: 4.129
  Gi1 hCB1: 12.4531
  GoB hCB1: 14.1424
hCB1; Log [Compound] (M) -8
  Gi1 hCB1 response: -0.3248
  Gi1 hCB1: 6.533
  GoB hCB1: 4.935
hCB1; Log [Compound] (M) -8.22186
  Gi1 hCB1 response: 3.077
  Gi1 hCB1: 6.209
  GoB hCB1: 1.626
hCB1; Log [Compound] (M) -8.39794
  Gi1 hCB1 response: 0.4809
  Gi1 hCB1: 4.544
  GoB hCB1: 0.2593
hCB1; Log [Compound] (M) -8.68787
  Gi1 hCB1 response: 1.913
  Gi1 hCB1: 3.434
  GoB hCB1: -1.683
hCB1; Log [Compound] (M) -9.15521
  Gi1 hCB1 response: -3.123
  Gi1 hCB1: 3.357
  GoB hCB1: -3.445
hCB1; Log [Compound] (M) -9.61989
  Gi1 hCB1 response: -0.5486
  Gi1 hCB1: 1.492
  GoB hCB1: -0.6039
hCB1; Log [Compound] (M) -10.5529
  Gi1 hCB1 response: 3.637
  Gi1 hCB1: 3.496
  GoB hCB1: -5.459
hCB1; Log [Compound] (M) -11.0177
  Gi1 hCB1 response: -17.939
  Gi1 hCB1: 1.214
  GoB hCB1: -3.661
hCB1; Log [Compound] (M) -11.4949
  Gi1 hCB1 response: 0.01089
  Gi1 hCB1: 1.523
  GoB hCB1: 0.9786
hCB1; Log [Compound] (M) -11.9208
  Gi1 hCB1 response: -4.7116
  Gi1 hCB1: 2.833
  GoB hCB1: 3.047
hCB1; Log [Compound] (M) -12.3979
  Gi1 hCB1 response: -3.011
  Gi1 hCB1: 0.3511
  GoB hCB1: -1.071
hCB1; Log [Compound] (M) -13, individual replicate values
  Gi1 hCB1 response: 10.3511 and -8.673
hCB1; Log [Compound] (M) -10.0969
  Gi1 hCB1: 1.199
  GoB hCB1: -2.51
hCB1; Log [Compound] (M) -12.8861
  Gi1 hCB1: 2.432
  GoB hCB1: -2.402
hCB1; Log [Compound] (M) -13
  Gi1 hCB1: 2.448 and 3.003
  GoB hCB1: -0.01046 and 0.7448
hCB1; hCB1 Gi1
  pEC50 [95% CI]: 6.8 [6.7 – 6.9]
  EC50: 150 nM
hCB1; hCB1 GoB
  pEC50 [95% CI]: 7.0 [6.8 – 7.3]
  EC50: 91.7 nM
hCB1; hCB1 Gz
  pEC50 [95% CI]: 6.7 [6.2 – 7.1]
  EC50: 225 nM
hCB1; read-out: Emax [95% CI], hCB1 Gi1
  Emax: 49%
hCB1; read-out: Emax [95% CI], hCB1 GoB
  Emax: 45%
hCB1; read-out: Emax [95% CI], hCB1 Gz
  Emax: 72%
CB1 (rCB1); rCB1
  pKi [95% CI]: 6.9 [6.8 – 7.1]
CB1 (rCB1); read-out: Ki [95% CI], rCB1, [3H]-CP-55,940
  Ki: 116 nM
